Data published in patent US8952024B2, “Herbicidal pyrimidone derivatives” (E I du Pont de Nemours and Company, priority 2009, dated 2015).

How the values were obtained:
Type in all cases: in vivo
[1] = system: windgrass (Apera spica-venti); assay: Test B postemergence plant response; conditions: for Windgrass plant response rating (0 to 100 scale): 0 is no effect
In short: (§1)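 Visual ratings from 0 (no effect) to 100 (complete control), made against controls 13–15 days after treatment, kept in a greenhouse. Compounds were applied postemergence to potted plants at the 1- to 4-leaf stage (2–18 cm).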

[2] = system: chickweed (Stellaria media); assay: Test B postemergence plant response; conditions: for Chickweed plant response rating (0 to 100 scale): 0 is no effect
In short: as §1

[3] = system: winter barley (Hordeum vulgare); assay: Test B postemergence plant response; conditions: for Barley plant response rating (0 to 100 scale): 62 g ai/ha, 0 is no effect, 13 to 15 days
In short: as §1

[4] = system: canarygrass (Phalaris minor); assay: Test B postemergence plant response; conditions: for Canarygrass plant response rating (0 to 100 scale): 0 is no effect
In short: as §1

corn (Zea mays) = assay: Test A pre-/postemergence plant response
In short: (§2)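 Each species was treated preemergence via directed soil spray and postemergence at the one- to two-leaf stage, with compounds formulated in a non-phytotoxic solvent plus surfactant. Visual injury relative to untreated controls was rated after about ten days on a 0–100 scale.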

[5] = system: wheat (Triticum aestivum); assay: Test A pre-/postemergence plant response
In short: as §2

[6] = system: morningglory (Ipomoea spp.); assay: Test A pre-/postemergence plant response
In short: as §2

[7] = system: large crabgrass (Digitaria sanguinalis); assay: Test A pre-/postemergence plant response
In short: as §2

[8] = system: giant foxtail (Setaria faberii); assay: Test A pre-/postemergence plant response
In short: as §2

[9] = system: pigweed (Amaranthus retroflexus); assay: Test A pre-/postemergence plant response
In short: as §2

[10] = system: velvetleaf (Abutilon theophrasti); assay: Test A pre-/postemergence plant response
In short: as §2

[11] = system: barnyardgrass (Echinochloa crus-galli); assay: Test A pre-/postemergence plant response
In short: as §2

[12] = 31 g ai/ha, postemergence, scale 0 to 100, 0 is no effect, 100 is complete control
[13] = Postemergence, 62 g ai/ha, scale 0 (no effect) to 100 (complete control), 13 to 15 days
[14] = Postemergence, 125 g ai/ha, visual rating after 13 to 15 days, scale 0 (no effect) to 100 (complete control)
[15] = Postemergence, 250 g ai/ha, scale 0 to 100 (0 no effect, 100 complete control)
[16] = Postemergence, 125 g ai/ha, visual injury, 0 to 100 scale (0 no effect, 100 complete control), approx. ten days
[17] = Postemergence, 500 g ai/ha, 0 to 100 scale, 0 = no effect, 100 = complete control, approx. ten days
[18] = Preemergence, 125 g ai/ha, 0 to 100 scale, 0 = no effect, 100 = complete control
[19] = Preemergence, 500 g ai/ha, visual injury, 0 to 100 scale (0 no effect, 100 complete control), approx. ten days
[20] = 62 g ai/ha, postemergence, 100 is complete control, 13 to 15 days
[21] = postemergence, 100 is complete control
[22] = Postemergence, 125 g ai/ha, 0 to 100 scale where 0 is no effect and 100 is complete control

O=C1CCCC(O)=C1C(=O)c1cnc(-c2cccc(Cl)c2)n(-c2ccc(Cl)cc2)c1=O [Compound 64]
10: Plant response rating, Barnyardgrass [11, 18]
35: Plant response rating, Barley [3, 15]
50: Plant response rating, Foxtail, Giant [8, 18] | Barnyardgrass plant response rating [11, 16]
95: Plant response rating, Windgrass [1, 14]
80: Crabgrass, Large plant response rating [7, 16] | Plant response rating, Crabgrass, Large [7, 18] | Plant response rating, Foxtail, Giant [8, 17] | Plant response rating, Pigweed [9, 18]
100: Plant response rating, Windgrass [1, 15] | Plant response rating, Chickweed [2, 15] | Plant response rating, Morningglory [6, 17] | Plant response rating, Pigweed [9, 17] | Plant response rating, Pigweed [9, 19] | Velvetleaf plant response rating [10, 16] | Plant response rating, Velvetleaf [10, 17]
40: Plant response rating, Canarygrass [4, 12] | Plant response rating, Canarygrass [4, 13] | Plant response rating, Canarygrass [4, 14]
30: Plant response rating, Wheat [5, 17]
60: Plant response rating, Canarygrass [4, 15] | Plant response rating, Corn (corn (Zea mays); [17]) | Foxtail, Giant plant response rating [8, 16] | Plant response rating, Velvetleaf [10, 18]
90: Plant response rating, Windgrass [1, 13] | Morningglory plant response rating [6, 16] | Plant response rating, Crabgrass, Large [7, 17] | Plant response rating, Crabgrass, Large [7, 19] | Pigweed plant response rating [9, 16] | Plant response rating, Velvetleaf [10, 19] | Plant response rating, Barnyardgrass [11, 17] | Plant response rating, Barnyardgrass [11, 19]
70: Plant response rating, Windgrass [1, 12] | Plant response rating, Foxtail, Giant [8, 19]
98: Plant response rating, Chickweed [2, 12] | Plant response rating, Chickweed [2, 13] | Plant response rating, Chickweed [2, 14]
15: Plant response rating, Barley [3, 12]
0: Corn plant response rating (corn (Zea mays); [16]) | Plant response rating, Corn (corn (Zea mays); [18]) | Plant response rating, Corn (corn (Zea mays); [19]) | Wheat plant response rating [5, 16] | Plant response rating, Wheat [5, 18] | Plant response rating, Wheat [5, 19] | Plant response rating, Morningglory [6, 18] | Plant response rating, Morningglory [6, 19]

CCCCc1ncc(C(=O)C2=C(O)CCCC2=O)c(=O)n1-c1ccc(C)cc1 [Compound 67]
70: Plant response rating, Velvetleaf [10, 18] | Barnyardgrass plant response rating [11, 16]
80: Plant response rating, Velvetleaf [10, 19]
20: Plant response rating, Barley [3, 14] | Wheat plant response rating [5, 16]
0: Plant response rating, Windgrass [1, 12] | Windgrass plant response rating (0 to 100 scale) [1, 20] | Plant response rating, Barley [3, 12] | Plant response rating, Canarygrass [4, 12] | Canarygrass plant response rating (0 to 100 scale) [4, 20] | Plant response rating, Canarygrass [4, 14] | Plant response rating, Corn (corn (Zea mays); [18]) | Plant response rating, Corn (corn (Zea mays); [19]) | Plant response rating, Wheat [5, 18] | Plant response rating, Wheat [5, 19] | Plant response rating, Barnyardgrass [11, 18]
90: Plant response rating, Chickweed [2, 12] | Plant response rating, Crabgrass, Large [7, 17] | Plant response rating, Crabgrass, Large [7, 19] | Plant response rating, Pigweed [9, 18] | Plant response rating, Pigweed [9, 19] | Plant response rating, Barnyardgrass [11, 17]
100: Plant response rating, Chickweed [2, 15] | Morningglory plant response rating [6, 16] | Plant response rating, Morningglory [6, 17] | Pigweed plant response rating [9, 16] | Plant response rating, Pigweed [9, 17] | Velvetleaf plant response rating [10, 16] | Plant response rating, Velvetleaf [10, 17]
95: Chickweed plant response rating (0 to 100 scale) [2, 20] | Plant response rating, Chickweed [2, 14]
50: Plant response rating, Morningglory [6, 19] | Plant response rating, Foxtail, Giant [8, 19]
30: Plant response rating, Barley [3, 15] | Plant response rating, Wheat [5, 17] | Plant response rating, Morningglory [6, 18] | Plant response rating, Crabgrass, Large [7, 18] | Foxtail, Giant plant response rating [8, 16]
10: Plant response rating, Corn (corn (Zea mays); [17])
5: Plant response rating, Windgrass [1, 14] | Plant response rating, Windgrass [1, 15] | Barley plant response rating (0 to 100 scale) [3, 21] | Plant response rating, Canarygrass [4, 15]
60: Crabgrass, Large plant response rating [7, 16] | Plant response rating, Foxtail, Giant [8, 17]
40: Plant response rating, Barnyardgrass [11, 19]

O=C1CCCC(O)=C1C(=O)c1cnc(-c2ccccc2Br)n(-c2ccccc2)c1=O [Compound 71]
70: Pigweed plant response rating [9, 16] | Plant response rating, Velvetleaf [10, 19]
98: Plant response rating, Chickweed [2, 15]
5: Plant response rating, Windgrass [1, 12] | Plant response rating, Barley [3, 15] | Canarygrass plant response rating (0 to 100 scale) [4, 20] | Plant response rating, Canarygrass [4, 14]
45: Plant response rating, Windgrass [1, 14]
75: Plant response rating, Chickweed [2, 12]
50: Plant response rating, Crabgrass, Large [7, 19] | Plant response rating, Velvetleaf [10, 18]
95: Plant response rating, Chickweed [2, 14]
100: Plant response rating, Morningglory [6, 17] | Plant response rating, Pigweed [9, 17] | Velvetleaf plant response rating [10, 16] | Plant response rating, Velvetleaf [10, 17]
10: Windgrass plant response rating (0 to 100 scale) [1, 20] | Plant response rating, Crabgrass, Large [7, 18] | Plant response rating, Foxtail, Giant [8, 19]
80: Morningglory plant response rating [6, 16] | Plant response rating, Crabgrass, Large [7, 17]
0: Plant response rating, Barley [3, 12] | Barley plant response rating (0 to 100 scale) [3, 21] | Plant response rating, Barley [3, 14] | Plant response rating, Canarygrass [4, 12] | Corn plant response rating (corn (Zea mays); [16]) | Plant response rating, Corn (corn (Zea mays); [18]) | Plant response rating, Corn (corn (Zea mays); [19]) | Wheat plant response rating [5, 16] | Plant response rating, Wheat [5, 17] | Plant response rating, Wheat [5, 18] | Plant response rating, Wheat [5, 19] | Plant response rating, Morningglory [6, 18] | Plant response rating, Morningglory [6, 19] | Plant response rating, Foxtail, Giant [8, 18] | Barnyardgrass plant response rating [11, 16] | Plant response rating, Barnyardgrass [11, 18] | Plant response rating, Barnyardgrass [11, 19]
60: Plant response rating, Windgrass [1, 15] | Plant response rating, Foxtail, Giant [8, 17] | Plant response rating, Barnyardgrass [11, 17]
90: Chickweed plant response rating (0 to 100 scale) [2, 20] | Plant response rating, Pigweed [9, 19]
30: Crabgrass, Large plant response rating [7, 16]
20: Plant response rating, Canarygrass [4, 15] | Plant response rating, Corn (corn (Zea mays); [17]) | Foxtail, Giant plant response rating [8, 16]

CCCc1ncc(C(=O)C2=C(O)CCCC2=O)c(=O)n1-c1ccccc1C [Compound 73]
80: Windgrass plant response rating (0 to 100 scale) [1, 20] | Plant response rating, Chickweed [2, 12] | Chickweed plant response rating (0 to 100 scale) [2, 20] | Plant response rating, Morningglory [6, 19] | Plant response rating, Foxtail, Giant [8, 22] | Plant response rating, Velvetleaf [10, 18]
50: Plant response rating, Wheat [5, 17] | Plant response rating, Foxtail, Giant [8, 18]
60: Plant response rating, Corn (corn (Zea mays); [17])
0: Plant response rating, Barley [3, 12] | Barley plant response rating (0 to 100 scale) [3, 21] | Plant response rating, Barley [3, 14] | Plant response rating, Canarygrass [4, 12] | Canarygrass plant response rating (0 to 100 scale) [4, 20] | Plant response rating, Corn (corn (Zea mays); [18]) | Plant response rating, Corn (corn (Zea mays); [19]) | Plant response rating, Barnyardgrass [11, 18]
70: Plant response rating, Windgrass [1, 12] | Plant response rating, Crabgrass, Large [7, 18] | Plant response rating, Foxtail, Giant [8, 19] | Plant response rating, Barnyardgrass [11, 22] | Plant response rating, Barnyardgrass [11, 19]
98: Plant response rating, Windgrass [1, 15]
95: Plant response rating, Chickweed [2, 14]
90: Plant response rating, Windgrass [1, 14] | Plant response rating, Crabgrass, Large [7, 22] | Plant response rating, Crabgrass, Large [7, 17] | Plant response rating, Foxtail, Giant [8, 17] | Plant response rating, Barnyardgrass [11, 17]
5: Plant response rating, Canarygrass [4, 14]
10: Plant response rating, Barley [3, 15] | Plant response rating, Wheat [5, 22] | Plant response rating, Wheat [5, 18] | Plant response rating, Morningglory [6, 18]
40: Plant response rating, Canarygrass [4, 15]
30: Plant response rating, Corn (corn (Zea mays); [22]) | Plant response rating, Wheat [5, 19]
100: Plant response rating, Chickweed [2, 15] | Plant response rating, Morningglory [6, 22] | Plant response rating, Morningglory [6, 17] | Plant response rating, Crabgrass, Large [7, 19] | Plant response rating, Pigweed [9, 22] | Plant response rating, Pigweed [9, 17] | Plant response rating, Pigweed [9, 18] | Plant response rating, Pigweed [9, 19] | Plant response rating, Velvetleaf [10, 22] | Plant response rating, Velvetleaf [10, 17] | Plant response rating, Velvetleaf [10, 19]
